These results are taken from publication PMC7312375, “A Novel, Pan-PDE Inhibitor Exerts Anti-Fibrotic Effects in Human Lung Fibroblasts via Inhibition of TGF-β Signaling and Activation of cAMP/PKA Signaling” (International Journal of Molecular Sciences, 2020).

What is called IC50 is the point on the concentration scale where inhibition reaches its midpoint.

The subject of test [1] is TGF-β1-induced MRC-5 cells. Description: qPCR of myofibroblast marker genes in TGF-β1-induced MRC-5. Type of test: cell-based, human. The settings on record: 10 µM, 24 h TGF-β1 5 ng/mL; compared to TGF-β1 alone. The protocol: Quantitative polymerase chain reaction (qPCR) was performed to assess the expression level of selected human genes: ACTA2, MYH11, SM22, COL1A1, TNC, FN1, and VCAN. MRC-5 cells were preincubated with study compounds (10 µM) for 1 h, followed by 24 h incubation with TGF-β1, and then total RNA was extracted using Total RNA Mini Kit (A&A Biotechnology, Gdynia, Poland) according to the manufacturer’s protocol. RNA concentration was measured with a BioSpectrometer® basic (Eppendorf), and equal amounts of total RNA (about 1 µg) were reverse-transcribed using the iScript™ cDNA Synthesis Kit (BioRad, Hercules, CA, USA). qPCR assays were performed using the CFX96 Touch Real-Time PCR Detection System (BioRad, Hercules, CA, USA) and SsoAdvanced^TM Universal SYBR® Green Supermix (BioRad, Hercules, CA, USA). qPCR cycling was performed with denaturation at 94 °C for 30 s, annealing at 59 °C for 30 s and an extension at 72 °C for 30 s. The relative abundance of specific mRNA transcripts was estimated based on cycle threshold (Ct) value and recalculated against the endogenous reference 18S ribosomal RNA gene (18S rRNA) using the ∆Ct method. The experiments were run three times in duplicates.
In general terms: In qPCR the cycle at which signal appears reflects the starting amount.

Test [2] deals with TGF-β1-induced MRC-5 cells. Description: In-cell ELISA of α-SMA and collagen I. Type of test: cell-based, human. The settings on record: 10 µM, 48 h TGF-β1 5 ng/mL. As for the experimental part:
The relative α-SMA and collagen I level in MRC-5 cells were measured using an in-cell ELISA assay. Study compounds (10 µM) were added 1 h before TGF-β1 treatment, and the content of both proteins in fibroblasts was determined after 48 h of incubation. Briefly, MRC-5 were fixed in methanol, permeabilized and blocked in 1% bovine serum albumin (BSA) with 0.1% Tween® 20 and then immunostained with primary mouse, monoclonal anti-α-SMA or anti-collagen type I antibodies (#A2547 or #SAB4200678, respectively, Sigma Aldrich, St. Louis, MO, USA), followed by secondary, anti-mouse, peroxidase-conjugated antibody (#A9044, Sigma Aldrich, St. Louis, MO, USA). The colorimetric reaction resulting from the addition of peroxidase substrate was stopped, and the absorbance was measured at 450 nm. The relative protein amount was normalized to the total cell number in each sample (Janus Green staining). The experiments were run four times in duplicates.
A general note: In an ELISA, binding on a coated surface is turned into a signal by an enzyme label.

For test [3], the system named is TGF-β1-induced MRC-5 cells. The experiment in a line: Immunofluorescence, nuclear localization of p-Smad-2. Type of test: cell-based, human. The settings on record: 10 µM; compared to TGF-β1 alone. The protocol:
For immunocytochemical labeling, MRC-5 cells were seeded on glass coverslips. Study compounds (10 µM) were added 1 h before TGF-β1 treatment, and analysis was performed after 1 h (p-Smad-2 and p-CREB detection) or 48 h (α-SMA detection) of incubation. Cells were fixed in methanol or 4% formaldehyde solution, permeabilized in 0.2% or 0.1% Triton X-100 solution (for p-Smad-2 and p-CREB or α-SMA, respectively). After incubation in blocking solution the following primary antibodies: rabbit polyclonal, anti-phospho-Smad-2 (Ser465, Ser467) antibody (#44-244G, Thermo Fisher Scientific, Waltham, MA, USA); rabbit polyclonal, anti-phospho-CREB1 (Ser133) antibody (#orb213775, Biorbyt, Cambridge, United Kingdom); mouse monoclonal, anti-α-SMA antibody (#MA5-11547, Thermo Fisher Scientific, Waltham, MA, USA) and secondary antibodies: goat anti-rabbit Alexa Fluor 546 conjugated antibody and goat anti-mouse Alexa Fluor 488 conjugated antibody (#A-11010 and #A-11001, respectively, Invitrogen, Carlsbad, CA, USA) were used. […] Slides were mounted in ProLong™ Glass Antifade Mountant (Invitrogen, Carlsbad, CA, USA) and analyzed using Leica DMiL LED Fluo microscope (for α-SMA and p-CREB visualization, 40× objective) or Leica DMi8 with Thunder Imaging System (for p-Smad-2 visualization, 40× objective), all equipped with LAS-X Software (Leica Microsystems GmbH, Wetzlar, Germany). […]

A further test deals with T1, PDE4D (Homo sapiens, UniProt Q08499).
T1 construct: purchased SignalChem
T1 sequence (Q08499 whole entry): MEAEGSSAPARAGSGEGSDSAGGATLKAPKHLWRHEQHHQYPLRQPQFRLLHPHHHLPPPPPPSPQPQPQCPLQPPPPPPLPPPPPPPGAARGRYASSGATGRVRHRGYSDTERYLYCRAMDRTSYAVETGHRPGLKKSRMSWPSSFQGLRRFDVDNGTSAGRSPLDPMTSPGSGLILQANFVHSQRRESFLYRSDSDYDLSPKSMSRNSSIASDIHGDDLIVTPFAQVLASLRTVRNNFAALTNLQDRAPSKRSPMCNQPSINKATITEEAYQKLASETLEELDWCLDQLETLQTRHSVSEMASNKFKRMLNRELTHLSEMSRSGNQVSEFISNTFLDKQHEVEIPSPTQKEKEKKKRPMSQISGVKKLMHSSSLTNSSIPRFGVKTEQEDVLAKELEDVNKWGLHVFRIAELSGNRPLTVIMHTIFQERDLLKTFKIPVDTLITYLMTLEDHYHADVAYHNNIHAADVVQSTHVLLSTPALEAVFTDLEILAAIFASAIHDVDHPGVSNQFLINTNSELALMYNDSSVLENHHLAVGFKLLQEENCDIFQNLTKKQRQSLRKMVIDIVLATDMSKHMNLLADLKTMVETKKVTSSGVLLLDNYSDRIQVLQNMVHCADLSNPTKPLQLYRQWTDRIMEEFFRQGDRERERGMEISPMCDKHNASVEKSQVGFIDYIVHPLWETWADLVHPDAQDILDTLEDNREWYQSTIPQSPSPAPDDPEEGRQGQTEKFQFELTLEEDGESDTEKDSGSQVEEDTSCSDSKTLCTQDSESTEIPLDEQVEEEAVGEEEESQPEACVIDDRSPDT
Further details: method as in PMID 31705904. The settings on record: published previously; read-out: PDE-IC50 4D; cited from earlier work.

The target in a further test is T2, PDE1B (Homo sapiens, UniProt Q01064).
T2 construct: purchased SignalChem
T2 sequence (Q01064 whole entry): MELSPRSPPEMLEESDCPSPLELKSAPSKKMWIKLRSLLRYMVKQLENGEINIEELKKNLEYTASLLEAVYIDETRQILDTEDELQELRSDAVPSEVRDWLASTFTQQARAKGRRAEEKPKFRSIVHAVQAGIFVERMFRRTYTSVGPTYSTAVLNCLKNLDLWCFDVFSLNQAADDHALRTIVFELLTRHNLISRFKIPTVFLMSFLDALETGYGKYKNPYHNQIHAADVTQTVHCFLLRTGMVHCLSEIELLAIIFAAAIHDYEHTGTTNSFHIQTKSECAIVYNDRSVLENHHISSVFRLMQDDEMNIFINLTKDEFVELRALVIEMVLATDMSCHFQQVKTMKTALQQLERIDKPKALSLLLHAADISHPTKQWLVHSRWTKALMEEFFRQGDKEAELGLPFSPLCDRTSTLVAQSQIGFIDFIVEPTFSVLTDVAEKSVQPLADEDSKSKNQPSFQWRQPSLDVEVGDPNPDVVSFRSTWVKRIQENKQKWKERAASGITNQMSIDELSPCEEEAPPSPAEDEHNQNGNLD
The experiment in a line: PDE-Glo assay, human recombinant PDE1B. The settings on record: n.a. = not active; read-out: PDE-IC50 1B. Type of test: biochemical. The protocol: Inhibitory activities of the investigated compounds against various subtypes of human recombinant (hr)PDEs, namely PDE1A, PDE1B, PDE1C, PDE3A, PDE3B, PDE4A, PDE4B, PDE4D, PDE7A, and PDE8A were assessed using a PDE-Glo^TM Assay Kit (Promega, Madison, WI, USA) according to the protocol provided by the manufacturer. Briefly, appropriate amounts of each enzyme (SignalChem, Richmond, B.C., Canada), diluted with PDE-Glo reaction buffer, were distributed on a 384-well plate (Thermo Scientific, Waltham, MA, USA). The investigated compounds were dissolved in DMSO, diluted with the same vehicle, and mixed with the reaction buffer at a v/v ratio of 1:5. Thereafter, 1 µL of these mixtures and 2.5 µL of the cAMP solution as a substrate were added. The final cAMP concentration was 0.05 µM. The samples were incubated for 10 min at 30 °C. […] Finally, 10 µL of PDE-Glo kinase reagent was added, and luminescence was measured using the POLARstar Omega plate reader (BMG LABTECH, Ortenberg, Germany). […] The relative activities (A, %) of all samples were calculated from the following equation: A = [(LUsample − LUblank)/(LUcontrol − LUblank)]·100%; where LUcontrol is the luminescence of a control sample in the absence of a PDE inhibitor, LUsample is a luminescence of an investigated sample in the presence of an inhibitor, and LUblank is a luminescence of a sample in the absence of enzyme (activity = 0). […]

The target of another test is T3, PDE4B (Homo sapiens, UniProt Q07343).
T3 construct: purchased SignalChem
T3 sequence (Q07343 whole entry): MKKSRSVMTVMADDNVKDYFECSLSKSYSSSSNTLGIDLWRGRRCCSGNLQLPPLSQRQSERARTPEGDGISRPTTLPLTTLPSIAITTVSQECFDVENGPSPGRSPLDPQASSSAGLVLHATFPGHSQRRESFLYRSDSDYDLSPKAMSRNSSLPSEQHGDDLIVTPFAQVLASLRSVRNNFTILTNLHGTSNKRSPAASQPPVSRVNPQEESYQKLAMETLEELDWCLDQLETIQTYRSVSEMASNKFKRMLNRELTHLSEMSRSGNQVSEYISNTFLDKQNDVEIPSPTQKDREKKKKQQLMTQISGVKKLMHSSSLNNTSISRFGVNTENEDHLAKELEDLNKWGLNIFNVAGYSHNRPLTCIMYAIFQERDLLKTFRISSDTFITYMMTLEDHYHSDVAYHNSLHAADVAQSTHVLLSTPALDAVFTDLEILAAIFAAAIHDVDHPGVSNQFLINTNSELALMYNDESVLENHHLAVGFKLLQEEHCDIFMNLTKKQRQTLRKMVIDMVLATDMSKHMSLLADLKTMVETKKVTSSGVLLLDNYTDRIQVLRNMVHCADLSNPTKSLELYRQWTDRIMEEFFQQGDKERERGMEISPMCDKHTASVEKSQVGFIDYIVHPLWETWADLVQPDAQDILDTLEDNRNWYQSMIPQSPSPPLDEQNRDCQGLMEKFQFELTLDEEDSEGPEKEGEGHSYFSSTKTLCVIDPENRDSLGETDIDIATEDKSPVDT
The settings on record: published previously; read-out: PDE-IC50 4B; cited from earlier work.

The next test addresses T4, PDE7A (Homo sapiens, UniProt Q13946).
T4 construct: purchased SignalChem
The settings on record: published previously; read-out: PDE-IC50 7A; cited from earlier work.

T4 sequence (Q13946 whole entry): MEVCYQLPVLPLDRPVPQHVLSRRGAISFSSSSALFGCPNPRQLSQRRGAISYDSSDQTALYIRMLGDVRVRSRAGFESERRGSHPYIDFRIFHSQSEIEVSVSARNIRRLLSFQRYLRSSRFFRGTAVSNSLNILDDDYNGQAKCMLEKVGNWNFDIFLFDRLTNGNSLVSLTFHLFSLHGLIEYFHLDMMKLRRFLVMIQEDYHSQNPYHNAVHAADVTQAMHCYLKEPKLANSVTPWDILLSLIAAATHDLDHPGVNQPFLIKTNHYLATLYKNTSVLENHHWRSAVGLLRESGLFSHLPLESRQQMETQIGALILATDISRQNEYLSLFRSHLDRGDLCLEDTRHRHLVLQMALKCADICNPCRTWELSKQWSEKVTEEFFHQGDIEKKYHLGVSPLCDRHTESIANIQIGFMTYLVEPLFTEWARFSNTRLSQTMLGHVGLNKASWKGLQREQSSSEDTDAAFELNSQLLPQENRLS

As to `CCCCOc1nc2c(c(=O)n(C)c(=O)n2C)n1CCCC(=O)Nc1cc(C(C)(C)C)ccc1O` [Compound 145, 4-(8-butoxy-1,3-dimethyl-2,6-dioxo-1,2,3,6-tetrahydro-7H-purin-7-yl)-N-(5-(tert-butyl)-2-hydroxyphenyl)butanamide], in test [1], the “decrease in TGF-β1-induced expression of ACTA2” value is recorded as “two-fold”, the “decrease in TGF-β1-induced expression of COL1A1” value is listed as “four-fold”, the “decrease in TGF-β1-induced expression of MYH11” value is listed as “five-fold” and the “decrease in TGF-β1-induced expression of SM22” value is listed as “nine-fold”. Besides, the “decrease in TGF-β1-induced expression of TNC” value in test [1] was “five-fold”. In addition, the “TGF-β1-induced cellular content of α-SMA and collagen I” value in test [2] is “significantly reduced the levels of both proteins”. Moreover, the “decrease of TGF-β1-induced nuclear localization of p-Smad-2” value in test [3] is reported as 57%. The concentration for half-maximal inhibition (IC50) at PDE4D is 13.8 µM.
With `Cn1c(=O)c2c(nc(NCc3ccco3)n2CCCC(=O)NN=Cc2ccc(O)cc2O)n(C)c1=O` [Compound 832, N′-(2,4-dihydroxybenzylidene)-4-(8-((furan-2-ylmethyl)amino)-1,3-dimethyl-2,6-dioxo-1,2,3,6-tetrahydro-7H-purin-7-yl)butanehydrazide], the half-maximal inhibitory concentration (IC50) is 0.04 µM on PDE1B, 4.4 µM at PDE4B and 10.5 µM at PDE7A. The “decrease of TGF-β1-induced nuclear localization of p-Smad-2” value in test [3] is “a slight decrease”.
